Literature values in patent publication US20230134521A1, “COMPOUNDS FOR METHODS FOR PROMOTING FEMALE REPRODUCTIVE HEALTH THROUGH MEDIATION OF RENIN ANGIOTENSIN FUNCTION” (priority 2021, published 2023).
Ends that are not written are not given here.

Key:
[1] = system: rabbit clitoral cavernosal and vaginal smooth muscle strips; conditions: organ bath; for relaxation of clitoral and vaginal smooth muscle: female rabbit clitoral (cavernosal) and vaginal smooth muscle
[2] = system: female sexual health, performance or libido; conditions: doses administered to women
[3] = system: pre-menopausal women with SIAD related disorders (hypoactive sexual desire disorder)

Row | Molecule | relaxation of clitoral and vaginal smooth muscle [1] | improvement to sexual health, performance or libido in women [2] | other results
1 | vasoactive intestinal polypeptide (HSDAVFTDNYTRLRKQMAVKKYLNSILN; ends and bridges not checked; UniProt P01282 125-152, looked up) [VIP, nonadrenergic/noncholinergic neurotransmitter] | dose-dependent relaxation |  | 
2 | CCCc1nn(C)c2c(=O)[nH]c(-c3cc(S(=O)(=O)N4CCN(C)CC4)ccc3OCC)nc12 [sildenafil] | dose-dependent relaxation |  | 
3 | CCCc1nc(C)c2c(=O)[nH]c(-c3cc(S(=O)(=O)N4CCN(CC)CC4)ccc3OCC)nn12 [Levitra] |  | without improvement | 
4 | O=c1[nH]c2ccccc2n1CCN1CCN(c2cccc(C(F)(F)F)c2)CC1 [Flibanserin, 2H-benzimidazol-2-one, 1,3-dihydro-1-[2-[4-[3(tri-fluoromethyl)phenyl]-1-piperazinyl]ethyl]] |  |  | share of women in whom the benefit was seen ([3]; 100 mg daily for a minimum of 28 days): 18%; therapeutic effect on Genitopelvic Pain/Penetration Disorder (vestibulodynia, dyspareunia) or Female Orgasmic Disorder ([3]; human, in vivo): no therapeutic effect at all; median placebo-corrected increase in satisfying sexual events (SSEs) ([3]; median baseline about 2-3 SSEs per month, over a six month period): 0.5-1.0 SSEs per month
5 | CCCc1nn(C)c2c(=O)[nH]c(-c3cc(S(=O)(=O)N4CCN(C)CC4)ccc3OCC)nc12 [Viagra] |  | without improvement | 
6 | N=C(N)NCCC[C@H](N)C(=O)O [L-arginine] |  |  | relaxation of clitoral cavernosal smooth muscle strips in response to NO donors ([1]; rabbit clitoral cavernosal smooth muscle strips): enhanced relaxation
